Reference: patent US20080171709A1, “Pharmaceutical Composition Comprising An Antiviral Agent, An Antitumoral Agent Or An Antiparasitic Agent, And An Active Agent Selected Among Carveol, Thymol, Eugenol, Borneol,And Carvacrol” (priority 2005, published 2008)
Converted amounts (≈) assume the structure as drawn. Where two headings read alike, the source gives them in different places.

Legend:
[1] = system: BSR (hamster kidney carcinoma) cell line; assay: MTT cytotoxicity on BSR cell line; assay type: cell-based; conditions: Mesocricetus auratus, read-out: IC50 (concentration inducing cytotoxicity for 50% of treated tumor cells)
Procedure: (§1) […] tests were carried out on HEP (human larynx carcinoma), BSR (hamster kidney carcinoma) and P815 (murin mastocytoma) cell lines cultivated on DMEM medium (Dulbecco's modified eagles medium) supplemented with 5% of fetal bovine serum (Gibco BRL, France), 1% of penicillin- streptomycin-neomycin, 0.2% of sodium bicarbonate. These percentages are given as ratio of the weight to the global volume of the medium.
(§2) In these compositions, excipient is agar solution.
(§3) IC50 have been determined.

[2] = system: P815 (murin mastocytoma) cell line; assay: MTT cytotoxicity on P815 cell line; assay type: cell-based; conditions: Mus musculus, P815, read-out: IC50 (concentration inducing cytotoxicity for 50% of treated tumor cells)
Procedure: as §1, §2, §3

[3] = system: HEP, BSR and P815 cell lines; assay: cells
Procedure: as §1, §2, §3

[4] = system: HEP (human larynx carcinoma) cell line; assay: MTT cytotoxicity on HEP cell line; assay type: cell-based
Procedure: as §1, §2, §3

[5] = read-out: IC50 (concentration inducing cytotoxicity for 50% of treated tumor cells)

| SMILES | IC50 [1] [mg/L] | IC50 [2] [mg/L] | cytotoxic effects towards cell lines at the concentration used in the tested compositions [3] | IC50 [4, 5] [mg/L] | IC50 ([1]; BSR, carvacrol, thymol or carveol alone) [mg/L] | IC50 ([4]; read-out: IC50 (concentration inducing cytotoxicity for 50% of treated tumor cells), HEP, carvacrol, thymol or carveol alone) [mg/L] | IC50 ([3]; Mus musculus, P815, read-out: IC50 of doxorubicin used alone) [mg/L] |
| --- | --- | --- | --- | --- | --- | --- | --- |
| C=C(C)C1CC=C(C)C(O)C1 (mixture of isomers) [Carveol, carveol] | 400 | 400 | without any cytotoxic effects | 400 | – | – | – |
| Cc1ccc(C(C)C)cc1O [Carvacrol, carvacrol] | – | 300 (≈ 2000 µM) | without any cytotoxic effects | – | 300 (≈ 2000 µM) | 300 (≈ 2000 µM) | – |
| COc1cccc2c1C(=O)c1c(O)c3c(c(O)c1C2=O)C[C@@](O)(C(=O)CO)C[C@@H]3O[C@H]1C[C@H](N)[C@H](O)[C@H](C)O1 [Doxorubicin, doxorubicin, reference compound] | 25 (≈ 46 µM) | 15 (≈ 27.6 µM) | – | 20 (≈ 36.8 µM) | – | – | 15 to 25 (≈ 27.6 to 46 µM) |
| Cc1ccc(C(C)C)c(O)c1 [Thymol, thymol] | 300 (≈ 2000 µM) | 300 (≈ 2000 µM) | without any cytotoxic effects | 300 (≈ 2000 µM) | – | – | – |
